# In article PMC4977052, “On the Utility of ToxCast™ and ToxPi as Methods for Identifying New Obesogens” (Environmental Health Perspectives, 2016):
# Where two headings read alike, the source gives them in different places.
# Tests used:
# GAL4-mPPARγ [1] = molecular target: T1, GAL4-mPPARγ (Mus musculus, UniProt P37238); assay: GAL4-mPPARγ activation, transient transfection luciferase reporter in COS7 cells; type: cell-based; conditions: for Activation of GAL4-PPARγ (text): COS7, 100 μM through 0.137 μM; for EC50: COS7, ligands 24 hr, nonlinear regression variable slope, spirodiclofen constrained at top dose, read-out: PPARγ agonists: EC50, Fig 1A / Fig 4A; for PPARγ agonists: EC10, Fig 1A / Fig 4A: COS7, computed from EC50 in GraphPad Quick Calc
# T1 construct: expressed in transfected cells; host or cells: COS7
# PPARγ [2] = conditions: cited from earlier work; for PPARγ agonists: EC10, ATG: AC10, ToxCast 2014 release; for AC50: PPARγ, NA = not active; for EC50: gain AC50, ToxCast 2014 release, read-out: PPARγ agonists: EC50, ATG
# PPARγ [3] = conditions: cited from earlier work; for PPARγ agonists: EC10, NCGC: AC10, ToxCast 2014 release; for AC50: PPARγ, NA = not active; for EC50: gain AC50, ToxCast 2014 release, read-out: PPARγ agonists: EC50, NCGC
# PPRE = tested on: PPRE; design: method as in Knudsen et al. 2011; conditions: ToxCast Phase I 2011 release; NA = not active; ref Knudsen et al. 2011; read-out: ATGC PPRE AC50; cited from earlier work
# COS7 cells = assay: Cytotoxicity in transfected COS7 cells measured as decreased β-galactosidase activity
# Experimental: (§1) pCMX-Gal4, pCMX-Gal4-mPPARγ, and pCMX-Gal4-hRXRα were previously described ([Grün et al. 2006]). Transient transfections were performed in COS7 cells as described ([Chamorro-García et al. 2012]). Briefly, COS7 cells were seeded at 15,000 cells per well in 96-well tissue culture plates in 10% calf bovine serum. The following day, cells were transfected in Opti-MEM at ~ 90% confluency. One microgram of CMX-GAL4 effector plasmid was co-transfected with 5 μg tk-(MH100)4-luciferase reporter and 5 μg of CMX-β-galactosidase transfection control plasmids in Opti-MEM® using Lipofectamine® 2000 reagent (Invitrogen™ Life Technologies, Carlsbad, CA, USA), following the manufacturer’s recommended protocol. All chemicals were solvated in dimethyl sulfoxide (DMSO). After overnight incubation, the medium was replaced with Dulbecco’s Modified Eagle Medium (DMEM; HyClone, Logan, UT, USA), 10% resin charcoal stripped fetal bovine serum (FBS) plus ligands at concentrations indicated in the figure legends for an additional 24 hr. DMSO concentration was maintained at 0.05% across all chemical treatments. Cells were lysed and assayed for luciferase and β-galactosidase activity as previously described ([Forman et al. 1995]). All transfections were performed in triplicate and reproduced in multiple experiments. Data are reported as fold induction or reduction over vehicle ([…]) controls ± SEM (standard error of the mean) using standard propagation of error ([Bevington and Robinson 2003]). […] The EC50, EC10, IC50, and IC10 values from NCGC and ToxCast™ are reported from gain AC50 and AC10 values in the ToxCast™ 2014 release ([Filer et al. 2014]).
# (§2) Figure 1 ToxCast™ Chemical Activity on PPARγ. The ability of a graded dose series of ToxCast™ chemicals to (A) activate or (B) antagonize GAL4-mPPARγ was tested in transiently transfected COS7 cells. (A, B) Data points are averages of triplicate transfections (three biological replicates). […] Data are depicted as (A) fold induction or (B) reduction over vehicle (0.05% DMSO) controls ± SEM. (A) ToxCast™ chemicals were tested in 3-fold serial dilutions from 100 μM through 0.137 μM, with the final data point being 0.05% DMSO. Rosiglitazone serves as a positive control activator. (B) ToxCast™ chemicals were tested in 3-fold serial dilutions from 100 μM, in competition with 50 nM rosiglitazone (Rosi). […] (C) EC50, EC10, IC50, and IC10 values calculated from A and B are reported and compared to commercial assays (see Figure S1). Note: ATG, Attagene GAL-PPARγ activation assay; NCGC, GeneBLAzer® agonist (EC values) or antagonist (IC values) assays. Triphenyltin was previously published ([Kanayama et al. 2005]).
# GAL4-mPPARγ [4] = molecular target: T1, GAL4-mPPARγ; assay: GAL4-mPPARγ antagonism in competition with 50 nM rosiglitazone, transiently transfected COS7 cells; type: cell-based
# Experimental: as §1, §2
# Human PPARγ = conditions: PPARγ direct binding, NA = not active, cited from earlier work
# PPARγ [5] = tested on: PPARγ; design: method as in Filer et al. 2014; conditions: ref Filer et al. 2014, cited from earlier work; for AC50: PPARγ, NA = not active, read-out: NCGC Antag. AC50, 2014 Release
# [6] = Cos-7 transient transfection, PPARγ activation or antagonism assays (Table 1, Table S6)
# [7] = ref Filer et al. 2014, read-out: ATG Agonist AC50, 2014 Release
# [8] = ref Knudsen et al. 2011, read-out: ATG Agonist AC50, 2011 Release
# [9] = ref Filer et al. 2014, read-out: NCGC Agonist AC50, 2014 Release
# [10] = ref Knudsen et al. 2011, read-out: NCGC Agonist AC50, 2011 Release
# T1 sequence (P37238 with tags, fused parts or gaps limits assumed): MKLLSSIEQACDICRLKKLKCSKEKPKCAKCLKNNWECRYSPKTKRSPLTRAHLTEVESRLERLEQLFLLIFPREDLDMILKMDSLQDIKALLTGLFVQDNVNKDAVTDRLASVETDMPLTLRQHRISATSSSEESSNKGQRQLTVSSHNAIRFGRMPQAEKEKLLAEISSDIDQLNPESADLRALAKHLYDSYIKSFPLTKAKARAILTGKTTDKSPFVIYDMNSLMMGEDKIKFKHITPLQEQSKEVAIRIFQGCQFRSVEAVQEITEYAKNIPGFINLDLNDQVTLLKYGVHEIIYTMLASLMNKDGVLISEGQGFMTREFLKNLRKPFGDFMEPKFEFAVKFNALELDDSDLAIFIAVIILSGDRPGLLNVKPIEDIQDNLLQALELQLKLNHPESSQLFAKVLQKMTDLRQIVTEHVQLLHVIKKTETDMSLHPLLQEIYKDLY
SMILES,Activation of GAL4-PPARγ (text) (GAL4-mPPARγ [1]),EC50 (GAL4-mPPARγ [1]) [nM],"PPARγ agonists: EC10, Fig 1A / Fig 4A (GAL4-mPPARγ [1]) [nM]",AC50 (GAL4-mPPARγ [1]; Cos-7 transient transfection) [nM],"Activation COS7 (result in words), ToxCast PPARγ list (GAL4-mPPARγ [1]; [6])","PPARγ agonists: EC10, ATG (PPARγ [2]; ref Filer et al. 2014) [nM]",AC50 (PPARγ [2]; [7]) [nM],AC50 (PPARγ [2]; [8]) [nM],EC50 (PPARγ [2]; ref Filer et al. 2014) [nM],"PPARγ agonists: EC10, NCGC (PPARγ [3]; ref Filer et al. 2014) [nM]",AC50 (PPARγ [3]; [9]) [nM],AC50 (PPARγ [3]; [10]) [nM],EC50 (PPARγ [3]; ref Filer et al. 2014) [nM],"Concentration at which cytotoxicity (decreased β-galactosidase activity) was observed (COS7 cells; transfected COS7 cells, 24 hr) [µM]",AC50 (PPARγ [5]) [nM],further results
Fc1ccc(Oc2ccnc3cc(Cl)cc(Cl)c23)cc1 [Quinoxyfen],weakly active at 100 μM and 33 μM doses,33400,14240,33400,PPARγ Activator,3980,5100,6600,5120,2440,40600,6700,40600,–,–,"Activation COS7 (result in words), ToxCast PPARγ list (GAL4-mPPARγ [1]): Inactive; Activation of GAL4-PPARγ (text) (GAL4-mPPARγ [1]; listed as quinoxyfen): activated PPARγ; Activation COS7 (result in words), ToxPi chemicals (GAL4-mPPARγ [1]; Cos-7 transient transfection, PPARγ or RXRα activation assays (Table 2)): PPARγ activator; AC50 (PPRE): 2800 nM"
CCC(C)(C)C(=O)OC1=C(c2ccc(Cl)cc2Cl)C(=O)OC12CCCCC2 [Spirodiclofen],activated GAL-PPARγ,12800,7270,–,PPARγ activator,100,1900,3600,1850,170,1600,2800,1640,100,–,"AC50 (GAL4-mPPARγ [1]; read-out: Activation AC50 (PPARγ activators), Cos-7 transient transfection): 12800 nM"
O=[N+]([O-])c1cc(C(F)(F)F)c(Cl)c([N+](=O)[O-])c1Nc1ncc(C(F)(F)F)cc1Cl [Fluazinam],did not activate PPARγ,–,–,–,–,–,1200,510,–,–,70,–,–,100,1300,"IC50 (GAL4-mPPARγ [4]): 7200 nM; AC50 (GAL4-mPPARγ [4]; Activation AC50 (PPARγ antagonists), Cos-7 transient transfection, competition with 50 nM rosiglitazone): 7200 nM; Antagonism of PPARγ (GAL4-mPPARγ [4]; COS7, competition against 50 nM rosiglitazone): weak antagonists; PPARγ antagonists: IC10, Fig 1B (GAL4-mPPARγ [4]; COS7, in competition with 50 nM rosiglitazone, computed from IC50): 4410 nM; Activation COS7 (result in words): PPARγ antagonist (GAL4-mPPARγ [4]; Cos-7 transient transfection, competition with 50 nM rosiglitazone): PPARγ antagonist; AC50 (Human PPARγ; ref Filer et al. 2014, read-out: NVS Agonist AC50, 2014 Release): 260 nM; AC50 (Human PPARγ; ref Knudsen et al. 2011, read-out: NVS Agonist AC50, 2011 Release): 280 nM; PPARγ antagonists: IC10, NCGC (PPARγ [5]; AC10, ToxCast 2014 release): 200 nM; IC50 (PPARγ [5]; read-out: PPARγ antagonists: IC50, NCGC, gain AC50, ToxCast 2014 release): 1270 nM"
CCC(C)(NC(=O)c1cc(Cl)c(C)c(Cl)c1)C(=O)CCl (stereo not drawn) [Zoxamide],activated GAL-PPARγ,1310,310,1310,PPARγ activator,180,1300,1500,1270,–,–,–,–,–,400,"Concentration at which cytotoxicity (decreased β-galactosidase activity) was observed (COS7 cells; African green monkey, 24 h): ≥ 10 µM"
